#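 Each compound was tested at five concentrations against cells in 96-well plates for 48 hours. The concentration for full growth arrest is given as TGI.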
# Legend:
# Experiment in all cases: DTP human tumour cell line panel, 48 h
# [1] = system: NCI-H522 lung
# [2] = system: 786-0 renal
# [3] = system: SK-MEL-2 melanoma
# [4] = system: HCT-116 colon
# [5] = system: HL-60(TB) leukemia
# [6] = system: MALME-3M melanoma
# [7] = system: SK-MEL-28 melanoma
# [8] = system: DMS 273 small cell lung
# [9] = system: U251 CNS
# [10] = system: A498 renal
# [11] = system: SF-539 CNS
# [12] = system: ACHN renal
# [13] = system: K-562 leukemia
# [14] = system: SF-295 CNS
# [15] = system: M14 melanoma
# [16] = system: LXFL 529 NSCLC
# [17] = system: SW-620 colon
# [18] = system: OVCAR-5 ovarian
# [19] = system: XF 498 CNS
# [20] = system: EKVX NSCLC
# [21] = system: UACC-62 melanoma
# [22] = system: M19-MEL melanoma
# [23] = system: UACC-257 melanoma
# [24] = system: A549 NSCLC
# [25] = system: SR leukemia
# [26] = system: NCI-H23 lung
# [27] = system: CAKI-1 renal
# [28] = system: IGROV1 ovarian
# [29] = system: SK-MEL-5 melanoma
# [30] = system: OVCAR-3 ovarian
# [31] = system: HT29 colon
# [32] = system: KM20L2 colon
# [33] = system: RXF-631 renal
# [34] = system: OVCAR-8 ovarian
# [35] = system: SNB-19 CNS
# [36] = system: OVCAR-4 ovarian
# [37] = system: CCRF-CEM leukemia
# [38] = system: MOLT-4 leukemia
# [39] = system: LOX IMVI melanoma
# [40] = system: HCC-2998 colon
# [41] = system: NCI-H460 lung
# [42] = system: RXF 393 renal
# [43] = system: DMS 114 small cell lung
# [44] = system: HOP-92 NSCLC
# [45] = system: HCT-15 colon
# [46] = system: TK-10 renal
# [47] = system: RPMI-8226 leukemia
# [48] = system: SNB-75 CNS
# [49] = system: UO-31 renal
# [50] = system: DLD-1 colon
# [51] = system: SNB-78 CNS
# [52] = system: NCI-H226 lung
# [53] = system: SN12C renal
# [54] = system: HOP-62 NSCLC
# [55] = system: COLO 205 colon
# [56] = system: SF-268 CNS
# [57] = system: KM12 colon
# [58] = system: HOP-18 NSCLC
# [59] = system: SK-OV-3 ovarian
compound,measurement,setting,value
Cc1ccc(NC(=O)CC2C(=O)Nc3ccccc3S2(=O)=O)cc1C (configuration not stated),TGI,[1],> 100 µM
same,TGI,[2],> 100 µM
same,TGI,[3],> 100 µM
same,TGI,[4],> 100 µM
same,TGI,[5],> 100 µM
same,TGI,[6],> 100 µM
same,TGI,[7],> 100 µM
same,TGI,[8],> 100 µM
same,TGI,[9],> 100 µM
same,TGI,[10],> 100 µM
same,TGI,[11],> 100 µM
same,TGI,[12],> 100 µM
same,TGI,[13],> 100 µM
same,TGI,[14],> 100 µM
same,TGI,[15],> 100 µM
same,TGI,[16],> 100 µM
same,TGI,[17],> 100 µM
same,TGI,[18],> 100 µM
same,TGI,[19],> 100 µM
same,TGI,[20],> 100 µM
same,TGI,[21],> 100 µM
same,TGI,[22],> 100 µM
same,TGI,[23],> 100 µM
same,TGI,[24],> 100 µM
same,TGI,[25],> 100 µM
same,TGI,[26],> 100 µM
same,TGI,[27],> 100 µM
same,TGI,[28],> 100 µM
same,TGI,[29],> 100 µM
same,TGI,[30],> 100 µM
same,TGI,[31],> 100 µM
same,TGI,[32],> 100 µM
same,TGI,[33],> 100 µM
same,TGI,[34],> 100 µM
same,TGI,[35],> 100 µM
same,TGI,[36],> 100 µM
same,TGI,[37],> 100 µM
same,TGI,[38],> 100 µM
same,TGI,[39],> 100 µM
same,TGI,[40],> 100 µM
same,TGI,[41],> 100 µM
same,TGI,[42],> 100 µM
same,TGI,[43],> 100 µM
same,TGI,[44],> 100 µM
same,TGI,[45],> 100 µM
same,TGI,[46],> 100 µM
same,TGI,[47],> 100 µM
same,TGI,[48],> 100 µM
same,TGI,[49],> 100 µM
same,TGI,[50],> 100 µM
same,TGI,[51],> 100 µM
same,TGI,[52],> 100 µM
same,TGI,[53],> 100 µM
Cc1c(C(=O)Nc2ccc(Cl)cc2)nc(N)nc1-c1cccc(Cl)c1,TGI,[54],> 100 µM
same,TGI,[2],> 100 µM
same,TGI,[4],> 100 µM
same,TGI,[5],> 100 µM
same,TGI,[6],> 100 µM
same,TGI,[7],> 100 µM
same,TGI,[55],> 100 µM
same,TGI,[8],> 100 µM
same,TGI,[9],> 100 µM
same,TGI,[11],> 100 µM
same,TGI,[12],> 100 µM
same,TGI,[13],> 100 µM
same,TGI,[14],> 100 µM
same,TGI,[15],> 100 µM
same,TGI,[17],> 100 µM
same,TGI,[18],> 100 µM
same,TGI,[56],> 100 µM
same,TGI,[20],> 100 µM
same,TGI,[21],> 100 µM
same,TGI,[22],> 100 µM
same,TGI,[23],> 100 µM
same,TGI,[24],> 100 µM
same,TGI,[25],> 100 µM
same,TGI,[26],> 100 µM
same,TGI,[27],> 100 µM
same,TGI,[28],> 100 µM
same,TGI,[29],> 100 µM
same,TGI,[30],> 100 µM
same,TGI,[31],> 100 µM
same,TGI,[32],> 100 µM
same,TGI,[33],> 100 µM
same,TGI,[34],> 100 µM
same,TGI,[35],> 100 µM
same,TGI,[36],> 100 µM
same,TGI,[37],> 100 µM
same,TGI,[38],> 100 µM
same,TGI,[40],> 100 µM
same,TGI,[41],> 100 µM
same,TGI,[42],> 100 µM
same,TGI,[43],> 100 µM
same,TGI,[44],95.6 µM
same,TGI,[57],> 100 µM
same,TGI,[58],> 100 µM
same,TGI,[49],> 100 µM
same,TGI,[50],> 100 µM
same,TGI,[51],> 100 µM
same,TGI,[52],> 100 µM
same,TGI,[53],> 100 µM
same,TGI,[59],> 100 µM
